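Tested at 5 concentrations; 48 h exposure; 96-well plates; endpoints linearly interpolated, else capped at highest concentration. TGI: total growth inhibition.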
Legend:
Experiment in all cases: NCI tumour cell line growth inhibition, 48 h
[1] = system: OVCAR-8 ovarian
[2] = system: M14 melanoma
[3] = system: NCI-H522 lung
[4] = system: KM12 colon
[5] = system: TK-10 renal
[6] = system: NCI-H23 lung
[7] = system: SNB-75 CNS
[8] = system: SW-620 colon
[9] = system: HCT-116 colon
[10] = system: SF-539 CNS
[11] = system: HL-60(TB) leukemia
[12] = system: NCI-H460 lung
[13] = system: IGROV1 ovarian
[14] = system: LOX IMVI melanoma
[15] = system: T-47D breast
[16] = system: MDA-MB-231 breast
[17] = system: MDA-MB-435
[18] = system: NCI/ADR-RES ovarian

Row | Compound | TGI [1] | TGI [2] | TGI [3] | TGI [4] | TGI [5] | TGI [6] | TGI [7] | TGI [8] | TGI [9] | TGI [10] | TGI [11] | TGI [12] | TGI [13] | TGI [14] | TGI [15] | TGI [16] | TGI [17] | TGI [18]
1 | C=C1C(=O)OC2C[C@H](C)C3CC(=O)C(C)=C3CC12 (stereo not given in full) | 39.3 µM | 27.4 µM | 3.66 µM | 33.3 µM | 30.5 µM | 28.7 µM | 32.6 µM | 18.7 µM | 20.4 µM | 35 µM | 8.42 µM | 51.6 µM | 31.4 µM | 30.4 µM |  |  |  | 
2 | CC1=Nc2nc3ccccc3n2C(C)(C)C1 | > 100 µM | > 100 µM | > 100 µM | > 100 µM | > 100 µM | > 100 µM | > 100 µM | > 100 µM | > 100 µM | > 100 µM |  | > 100 µM | > 100 µM | > 100 µM | > 100 µM | > 100 µM | > 100 µM | > 100 µM
3 | CC(=O)c1ccc(N2CCN(c3c(O)c4c(c(O)c3Cl)C(=O)C=CC4=O)CC2)cc1 | 23 µM | 6.76 µM |  |  |  |  | 26.6 µM | 12.7 µM | 11.9 µM | 30.2 µM | 0.871 µM | 41 µM | 15.5 µM |  | 10.4 µM | 5.5 µM |  | 88.5 µM
4 | O=C1NC2OCC(O)C(O1)C2O (stereo not given) | > 100 µM | > 100 µM | > 100 µM | > 100 µM | > 100 µM | > 100 µM | > 100 µM | > 100 µM |  | > 100 µM | > 100 µM | > 100 µM | > 100 µM | > 100 µM |  |  |  | 
5 | COc1nc(/C=N/NC(N)=S)nc(OC)n1 | > 100 µM | > 100 µM | > 100 µM | > 100 µM | > 100 µM | > 100 µM | > 100 µM | > 100 µM | > 100 µM | > 100 µM | > 100 µM | > 100 µM | > 100 µM |  |  |  |  | 
6 | Cn1c(=O)oc2cc(C(=S)N3CCC(Cc4ccccc4)CC3)ccc21 | > 100 µM | > 100 µM |  | > 100 µM | > 100 µM | > 100 µM | > 100 µM | > 100 µM | > 100 µM | > 100 µM | > 100 µM | > 100 µM | > 100 µM | > 100 µM |  | > 100 µM | > 100 µM | > 100 µM
7 | CC1(C)N(OC2CCCCO2)C(c2ccccc2)C(c2ccccc2)=[N+]1[O-] (stereo not given) | > 100 µM | > 100 µM |  | > 100 µM | > 100 µM | > 100 µM | > 100 µM | > 100 µM | > 100 µM | > 100 µM | > 100 µM | > 100 µM | > 100 µM | > 100 µM |  | > 100 µM |  | > 100 µM
8 | CCCCCCc1cc2cc(C(=O)Nc3ccccc3F)c(=N)oc2cc1O | 8.34 µM | 28.7 µM | 16.8 µM | 19.7 µM |  | 8.03 µM |  | > 100 µM | 20.6 µM | 39.3 µM | 31.9 µM | 97.8 µM | 13.7 µM | 19.4 µM | 12.4 µM |  | 10.2 µM | 16.8 µM
